In patent publication US11208468B2, “Methods and compositions for treating melanoma” (The Wistar Institute of Anatomy and Biology, priority 2016, dated 2021):

System: melanoma patient PBMC samples WM35, WM3457 and 3451
Assay: Proliferative response, 3HTdR incorporation assay with peptide-pulsed monocytes
Type: cell-based, human
Conditions: monocytes pulsed 8 hours with 25 μM peptide, cultured with PBMC for 5 days; each sample assayed
Protocol: The peptides were screened for T-helper sequences (Th): Peptide P8 is amino acids residues 608-622 of BRAF, i.e., […] (SEQ ID NO: 15). Peptide P9 is amino acids residues […] of BRAF, i.e., […] (SEQ ID NO: 16). Peptide P10 is amino acids residues […] of BRAF, i.e., […] (SEQ ID NO: 17). These peptides bind to HLA-DR alleles using computer algorithms, as disclosed in Example 1 below. Proliferative responses were determined by standard ^3HTdR incorporation assay.
A number of such peptides were assayed as follows: Adherent monocytes (5×10^4/well) were pulsed for 8 hours with synthetic peptides (25 μM): Peptide 8 (SEQ ID NO:15), Peptide 9 (SEQ ID NO:16), and Peptide 10 (SEQ ID NO: 17). At the end of incubation, excess peptides were removed and the monocytes were cultured with one of three melanoma patient PBMC samples labeled WM35, WM3457 and 3451 (1×10^5) for 5 days.
Data are expressed as mean cpm (triplicate determinations) plus SD (bar) of ^3HTdR incorporation.

Sequence | Proliferative response (3HTdR incorporation, mean cpm) versus control peptide
EDLTVKIGDFGLATV (listed as Homo sapiens) [Peptide 9] | Significantly (p<0.01) different values compared to control
SHQFEQLSGSILWHA (listed as Homo sapiens) [Peptide 8] | Significantly (p<0.01) different values compared to control
